Measured values reported in publication PMC8008885 (Journal of Enzyme Inhibition and Medicinal Chemistry, 2021).
pIC50: −log10 of the molar value.

Legend:
[1] = test system: H3K9me3 occupancy in promoter regions; assay: H3K9me3-ChIP sequencing of striatal tissue of YAC128 mice; type: in vivo, mouse; details: for Fold(YACEi/YAC) H3K9me3 ChIP occupancy: APQ-treated YAC vs YAC mice striatum
Description: ChIP for H3K9me3 binding to DNA was performed using a CHIP assay kit (Santa Cruz, Dallas, TX) as described previously[21]^,[28]. Striatal tissues from WT, vehicle treated YAC128, and APQ-treated YAC128 mice were crossed-linked with 1% formaldehyde for 20 min at room temperature. Lysates were sonicated for 30 s six times using a Bioruptor (Diagenode Inc., Denville, NJ). After centrifugation, the supernatant was diluted in CHIP dilution buffer and incubated overnight at 4 °C with anti-H3K9me3 antibody. Immune complexes were recovered by the addition of 60 µl of salmon sperm DNA/protein A agarose-50% slurry and incubation at 4 °C for 2 h with rotation. Beads were pelleted and washed with low and high salt buffer followed by LiCl buffer (x3). Immune complexes were eluted by incubation with 500 µl of fresh elution buffer (1% SDS, 0.1 M NaHCO3) and 20 µl of 5 M NaCl. DNA was cleaned by the addition of 500 mM EDTA, 1 M Tris, and proteinase K at 66 °C for 4 h. The DNA solution was extracted with a phenol/chloroform/isoamyl alcohol mixture to remove protein contaminants, followed by precipitation with 100% ethanol. After precipitation, the pellet was washed with 70% ethanol and dissolved in 20 µl DW.
The Model-based Analysis of ChIP-Seq algorithm (MACS; v. 1.4.2) was used to identify regions of H3K9me3 enrichment with the default parameters. The peaks that pass a Poisson p values threshold of 0.1 were used for further analyses[28]^,[42]. In order to obtain reliable regions of enrichment, the regions detected in more than two samples were selected and aligned to define the consensus regions using DiffBind R package (v. 2.4.8)[43]. The reads in the consensus regions were counted and DESeq2 was applied to identify DMRs[44]. The DMRs were defined as p values of ≤.05 and only DMRs in promoter region (≤3 K from transcription start site) were selected.
Among the read peaks, a total of H3K9me3-enriched 71735 sites were commonly detected using MACS in WT, vehicle-treated YAC128, and APQ-treated YAC128 mice (using DiffBind R package). The reads were re-counted in the 71,735 sites (using DESeq2) and the H3K9me3-enriched sites in promoter region (≤3 K), with p values ≤.01 were selected. Then the H3K9me3-enriched sites with 1.5-fold higher in vehicle-treated YAC128 compared to WT and 1.5-fold lower in vehicle-treated YAC128 compared to APQ-treated YAC128 were finally selected.

SETDB1 enzyme = SETDB1 enzyme (Homo sapiens, UniProt Q15047); assay: biochemical
Description: SETDB1 enzyme activity was analysed using commercially available SETBD1 chemiluminescent assay kit (BPS Bioscience, San Diego, CA, #51056) according to the manufacturer’s instructions. All analyses were performed in duplicates and all reagents used are supplied in the kit. […] Total 50 µL mixture of histone methylation transfer buffer (50 mM Tris–HCl, pH 9.0, 1 mM phenylmethylsulfonyl fluoride, and 0.5 mM dithiothreitol) containing 20 µM SAM, each concentration of inhibitors and 1.25 ng/µL SETDB1 enzyme was added to each well of a 96-well plate. The wells were pre-coated with histone H3 peptide substrate. Reactions were allowed to proceed for 1 h 30 min at room temperature. Methylated K9 residue of H3 peptide was detected with anti-methylated H3K9 primary antibody and HRP-conjugated secondary antibody. Chemiluminescence resulting from the reaction between the HRP-conjugated secondary antibody and the added HRP substrate was measured using a SpectraMax M2 plate reader (Molecular Devices, Sunnyvale, CA).
The inhibitory activity at each concentration was recorded by detecting chemiluminescence signal after treatment of H3K9 antibody followed by addition of the HRP substrate.

SMILES: C=CCOc1cccc2nc(N3CCCC3)ccc12 [APQ, 5-allyloxy-2-(pyrrolidin-1-yl)quinoline]
- Fold(YACEi/YAC) ([1]; H3K9me3 ChIP peak chrX_13041660_13042117, 5730405O15Rik, Promoter (<=1kb)): -3.61
- Fold(YACEi/YAC) ([1]; H3K9me3 ChIP peak chrX_20364227_20364518, Rp2, Promoter (<=1kb)): -2.41
- Fold(YACEi/YAC) ([1]; H3K9me3 ChIP peak chrX_20656130_20656390, Uba1, Promoter (1-2kb)): -3.37
- Fold(YACEi/YAC) ([1]; H3K9me3 ChIP peak chrX_20953229_20953500, Elk1, Promoter (2-3kb)): -2.86
- Fold(YACEi/YAC) ([1]; H3K9me3 ChIP peak chrX_21482622_21482887, Agtr2, Promoter (1-2kb)): -3.76
- Fold(YACEi/YAC) ([1]; H3K9me3 ChIP peak chrX_51205773_51206072, Mbnl3, Promoter (<=1kb)): -4.38
- Fold(YACEi/YAC) ([1]; H3K9me3 ChIP peak chrX_52575414_52575585, A630012P03Rik, Promoter (<=1kb)): -2.24
- Fold(YACEi/YAC) ([1]; H3K9me3 ChIP peak chrX_53059727_53060393, C430049B03Rik, Promoter (2-3kb)): -2.78
- Fold(YACEi/YAC) ([1]; H3K9me3 ChIP peak chrX_55223440_55223928, Slxl1, Promoter (2-3kb)): -3.59
- Fold(YACEi/YAC) ([1]; H3K9me3 ChIP peak chrX_56214992_56215323, Gm773, Promoter (2-3kb)): -3.3
- Fold(YACEi/YAC) ([1]; H3K9me3 ChIP peak chrX_56345445_56345878, Zfp449, Promoter (<=1kb)): -3.19
- Fold(YACEi/YAC) ([1]; H3K9me3 ChIP peak chrX_56823574_56823879, Map7d3, Promoter (1-2kb)): -4.1
- Fold(YACEi/YAC) ([1]; H3K9me3 ChIP peak chrX_57211052_57211422, Cd40lg, Promoter (<=1kb)): -3.71
- Fold(YACEi/YAC) ([1]; H3K9me3 ChIP peak chrX_59587905_59588513, Fgf13, Promoter (2-3kb)): -4.9
- Fold(YACEi/YAC) ([1]; H3K9me3 ChIP peak chrX_62280858_62281466, 4933402E13Rik, Promoter (2-3kb)): -2.07
- Fold(YACEi/YAC) ([1]; H3K9me3 ChIP peak chrX_66814240_66814775, Mir470, Promoter (<=1kb)): -2.86
- Fold(YACEi/YAC) ([1]; H3K9me3 ChIP peak chrX_68010275_68010563, Mir509, Promoter (<=1kb)): -3.86
- Fold(YACEi/YAC) ([1]; H3K9me3 ChIP peak chrX_72985743_72986276, Zfp185, Promoter (1-2kb)): -2.91
- Fold(YACEi/YAC) ([1]; H3K9me3 ChIP peak chrX_74085947_74086310, Mecp2, Promoter (<=1kb)): -3.17
- Fold(YACEi/YAC) ([1]; H3K9me3 ChIP peak chrX_74254068_74254967, Emd, Promoter (<=1kb)): -2.9
- Fold(YACEi/YAC) ([1]; H3K9me3 ChIP peak chrX_100570155_100570557, Awat1, Promoter (1-2kb)): -2.24
- Fold(YACEi/YAC) ([1]; H3K9me3 ChIP peak chrX_100595739_100596091, P2ry4, Promoter (<=1kb)): -2.74
- Fold(YACEi/YAC) ([1]; H3K9me3 ChIP peak chrX_103413658_103414114, Tsx, Promoter (<=1kb)): -2.74
- Fold(YACEi/YAC) ([1]; H3K9me3 ChIP peak chrX_112599521_112600132, Zfp711, Promoter (<=1kb)): -3.8
- Fold(YACEi/YAC) ([1]; H3K9me3 ChIP peak chrX_113186036_113186428, Chm, Promoter (<=1kb)): -3.29
- Fold(YACEi/YAC) ([1]; H3K9me3 ChIP peak chrX_120315318_120315582, H2afb3, Promoter (2-3kb)): -3.46
- Fold(YACEi/YAC) ([1]; H3K9me3 ChIP peak chrX_120316028_120316808, H2afb3, Promoter (2-3kb)): -3.74
- Fold(YACEi/YAC) ([1]; H3K9me3 ChIP peak chrX_123101642_123102142, Cldn34c1, Promoter (1-2kb)): -3.6
- Fold(YACEi/YAC) ([1]; H3K9me3 ChIP peak chrX_134057860_134058275, Cstf2, Promoter (<=1kb)): -2.34
- Fold(YACEi/YAC) ([1]; H3K9me3 ChIP peak chrX_134162152_134162880, Xkrx, Promoter (<=1kb)): -2.18
- Fold(YACEi/YAC) ([1]; H3K9me3 ChIP peak chrX_134757222_134757422, Mir7093, Promoter (<=1kb)): -2.8
- Fold(YACEi/YAC) ([1]; H3K9me3 ChIP peak chrX_142294260_142294634, Gm5643, Promoter (2-3kb)): -2.73
- Fold(YACEi/YAC) ([1]; H3K9me3 ChIP peak chrX_142390366_142390928, Acsl4, Promoter (<=1kb)): -2.3
- Fold(YACEi/YAC) ([1]; H3K9me3 ChIP peak chrX_150550381_150550648, Mir3620, Promoter (2-3kb)): -2.24
- Fold(YACEi/YAC) ([1]; H3K9me3 ChIP peak chrX_152231158_152231359, Kdm5c, Promoter (1-2kb)): -3.16
- Fold(YACEi/YAC) ([1]; H3K9me3 ChIP peak chrX_152560343_152560717, Cldn34a, Promoter (2-3kb)): -4.14
- Fold(YACEi/YAC) ([1]; H3K9me3 ChIP peak chrX_152562252_152562894, Cldn34a, Promoter (<=1kb)): -2.56
- Fold(YACEi/YAC) ([1]; H3K9me3 ChIP peak chrX_153139912_153140739, Rragb, Promoter (<=1kb)): -2.81
- Fold(YACEi/YAC) ([1]; H3K9me3 ChIP peak chrX_158043367_158043944, Cnksr2, Promoter (<=1kb)): -2.16
- Fold(YACEi/YAC) ([1]; H3K9me3 ChIP peak chrX_159623974_159624438, Sh3kbp1, Promoter (2-3kb)): -3.85
- Fold(YACEi/YAC) ([1]; H3K9me3 ChIP peak chrX_159987543_159987820, Map3k15, Promoter (<=1kb)): -3.61
- Fold(YACEi/YAC) ([1]; H3K9me3 ChIP peak chrX_161115587_161115938, Scml2, Promoter (1-2kb)): -2.64
- Fold(YACEi/YAC) ([1]; H3K9me3 ChIP peak chrX_162760032_162760397, Rbbp7, Promoter (<=1kb)): -3.13
- Fold(YACEi/YAC) ([1]; H3K9me3 ChIP peak chrX_166236123_166236395, Gpm6b, Promoter (2-3kb)): -4.18
- Fold(YACEi/YAC) ([1]; H3K9me3 ChIP peak chrX_166439947_166441101, Ofd1, Promoter (<=1kb)): -2.41
- Fold(YACEi/YAC) ([1]; H3K9me3 ChIP peak chrX_166482184_166482633, Rab9, Promoter (2-3kb)): -2.11
- Fold(YACEi/YAC) ([1]; H3K9me3 ChIP peak chrX_167266371_167266766, Tlr8, Promoter (2-3kb)): -3.38
- Fold(YACEi/YAC) ([1]; H3K9me3 ChIP peak chrX_169321353_169321792, Hccs, Promoter (<=1kb)): -2.43
- Fold(YACEi/YAC) H3K9me3 ChIP occupancy ([1]; Hsf3, Promoter (<=1kb), chrX_96456335_96456839): -2.88
- Fold(YACEi/YAC) H3K9me3 ChIP occupancy ([1]; Mageb18, Promoter (1-2kb), chrX_92601496_92601857): -2.64
- Fold(YACEi/YAC) H3K9me3 ChIP occupancy ([1]; Prkx, Promoter (2-3kb), chrX_77798133_77798638): -2.48
- Fold(YACEi/YAC) H3K9me3 ChIP occupancy ([1]; Rbm3, Promoter (1-2kb), chrX_8147480_8147724): -2.71
- Fold(YACEi/YAC) H3K9me3 ChIP occupancy ([1]; Ssxb3, Promoter (2-3kb), chrX_8592171_8592736): -2.75
- Fold(YACEi/YAC) H3K9me3 ChIP occupancy ([1]; Suv39h1, Promoter (1-2kb), chrX_8076427_8076637): -2.8
- Fold(YACEi/YAC) H3K9me3 ChIP occupancy ([1]; Wdr45, Promoter (1-2kb), chrX_7720185_7720585): -3.17
- pIC50 (SETDB1 enzyme): 4.19
